From ChEMBL document CHEMBL3817783, “Identification of Potential Off-target Toxicity Liabilities of Catechol-O-methyltransferase Inhibitors by Differential Competition Capture Compound Mass Spectrometry” (J Med Chem, 2016)
Calls of active or inactive are those of the source. The rule behind the calls is not given here.

Columns and labels:
[1] = biological target: Kynurenine--oxoglutarate transaminase 3 (Homo sapiens, UniProt Q6YP21); experiment: Binding affinity to CCBL2 in human HepG2 assessed as intensity fold change of cumulated normalized intensity of protein between capture and competition assay at 100 uM after 1 hr in presence of active Tcp-CC-13 by differential competition capture compound mass spectrometry; format: ADME
Kynurenine--oxoglutarate transaminase 3, sequence (Q6YP21 whole entry): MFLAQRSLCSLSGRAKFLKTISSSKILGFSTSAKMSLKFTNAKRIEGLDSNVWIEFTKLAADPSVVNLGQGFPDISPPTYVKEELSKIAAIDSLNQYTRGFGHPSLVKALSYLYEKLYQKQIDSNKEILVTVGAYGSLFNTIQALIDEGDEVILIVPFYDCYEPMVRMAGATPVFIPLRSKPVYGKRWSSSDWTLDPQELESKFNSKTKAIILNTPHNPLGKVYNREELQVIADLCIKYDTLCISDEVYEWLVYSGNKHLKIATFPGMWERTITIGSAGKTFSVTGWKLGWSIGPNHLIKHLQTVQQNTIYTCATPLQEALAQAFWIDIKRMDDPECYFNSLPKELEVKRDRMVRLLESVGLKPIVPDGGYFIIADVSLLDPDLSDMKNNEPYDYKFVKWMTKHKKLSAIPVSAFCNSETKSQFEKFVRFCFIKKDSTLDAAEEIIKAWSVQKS

[2] = biological target: T1, 3-hydroxyisobutyryl-CoA hydrolase, mitochondrial (Homo sapiens) (UniProt Q6NVY1); experiment: Binding affinity to human recombinant HIBCH assessed as intensity fold change of cumulated normalized intensity of protein between capture and competition assay at 100 uM after 1 hr in presence of inactive Tcp-CC-14 by differential competition capture compound mass spectrometry
T1 sequence (whole entry): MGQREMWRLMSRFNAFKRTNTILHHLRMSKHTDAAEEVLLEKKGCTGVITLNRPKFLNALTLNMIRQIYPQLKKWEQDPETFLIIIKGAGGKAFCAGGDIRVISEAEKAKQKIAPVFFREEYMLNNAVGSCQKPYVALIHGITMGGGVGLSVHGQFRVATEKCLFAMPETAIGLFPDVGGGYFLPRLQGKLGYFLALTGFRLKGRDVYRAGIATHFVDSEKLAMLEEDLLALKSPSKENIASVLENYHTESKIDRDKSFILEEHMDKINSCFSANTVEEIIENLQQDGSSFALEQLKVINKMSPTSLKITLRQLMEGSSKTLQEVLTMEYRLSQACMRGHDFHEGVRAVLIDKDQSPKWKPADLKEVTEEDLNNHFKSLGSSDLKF

Acireductone dioxygenase = biological target: T2, Acireductone dioxygenase (Homo sapiens, UniProt Q9BV57); experiment: Binding affinity to ADL1 in human HepG2 assessed as intensity fold change of cumulated normalized intensity of protein between capture and competition assay at 100 uM after 1 hr in presence of active Tcp-CC-13 by differential competition capture compound mass spectrometry; format: ADME
T2 sequence (Q9BV57 whole entry): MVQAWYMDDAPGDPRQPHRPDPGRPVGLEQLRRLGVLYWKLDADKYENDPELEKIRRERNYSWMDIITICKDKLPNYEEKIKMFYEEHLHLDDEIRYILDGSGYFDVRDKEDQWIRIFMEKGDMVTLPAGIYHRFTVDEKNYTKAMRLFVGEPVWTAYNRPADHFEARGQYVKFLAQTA

[3] = biological target: T3, Protein NipSnap homolog 3A (Homo sapiens, UniProt Q9UFN0); experiment: Binding affinity to NIPSNAP3A in human HepG2 assessed as intensity fold change of cumulated normalized intensity of protein between capture and competition assay at 100 uM after 1 hr in presence of inactive Tcp-CC 14 by differential competition capture compound mass spectrometry; format: ADME
T3 sequence (Q9UFN0 whole entry): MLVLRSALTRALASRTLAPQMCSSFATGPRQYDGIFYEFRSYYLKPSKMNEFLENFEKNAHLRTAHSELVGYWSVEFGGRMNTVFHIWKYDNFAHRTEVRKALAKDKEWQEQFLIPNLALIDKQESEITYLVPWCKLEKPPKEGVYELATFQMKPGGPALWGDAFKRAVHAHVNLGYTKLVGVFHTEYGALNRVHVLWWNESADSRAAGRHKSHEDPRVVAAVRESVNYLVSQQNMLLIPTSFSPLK

HepG2 [4] = experiment: Mitochondrial toxicity in human HepG2 cells assessed as mitochondrial membrane potential levels at 100 uM by TMRE-based mitochondria membrane potential assay relative to control; format: cell-based; settings: hepg2, 100 µM
HepG2 [5] = experiment: Mitochondrial toxicity in human HepG2 cells assessed as mitochondrial membrane potential levels at 50 uM by TMRE-based mitochondria membrane potential assay relative to control; format: cell-based; settings: hepg2, 50 µM
[6] = biological target: T4, Glutaryl-CoA dehydrogenase, mitochondrial (Homo sapiens, UniProt Q92947); experiment: Binding affinity to GCDH in human HepG2 assessed as intensity fold change of cumulated normalized intensity of protein between capture and competition assay at 100 uM after 1 hr in presence of active Tcp-CC-13 by differential competition capture compound mass spectrometry; format: ADME
T4 sequence (Q92947 whole entry): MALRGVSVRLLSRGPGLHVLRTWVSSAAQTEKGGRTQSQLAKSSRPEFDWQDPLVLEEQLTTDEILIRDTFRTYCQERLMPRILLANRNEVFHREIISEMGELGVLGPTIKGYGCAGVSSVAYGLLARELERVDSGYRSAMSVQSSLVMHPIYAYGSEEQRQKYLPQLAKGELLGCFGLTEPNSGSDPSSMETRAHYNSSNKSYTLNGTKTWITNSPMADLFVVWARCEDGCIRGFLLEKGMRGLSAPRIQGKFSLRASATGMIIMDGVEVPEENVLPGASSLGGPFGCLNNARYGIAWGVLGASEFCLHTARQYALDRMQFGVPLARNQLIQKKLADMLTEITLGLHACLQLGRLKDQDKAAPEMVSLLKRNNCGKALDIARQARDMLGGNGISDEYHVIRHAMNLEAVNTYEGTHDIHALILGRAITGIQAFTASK

[7] = biological target: T1, 3-hydroxyisobutyryl-CoA hydrolase, mitochondrial (Homo sapiens); experiment: Binding affinity to human recombinant HIBCH assessed as intensity fold change of cumulated normalized intensity of protein between capture and competition assay at 100 uM after 1 hr in presence of active Tcp-CC-13 by differential competition capture compound mass spectrometry
[8] = biological target: Aldo-keto reductase family 1 member B10 (Homo sapiens, UniProt O60218); experiment: Binding affinity to AKR1B10 in human HepG2 assessed as intensity fold change of cumulated normalized intensity of protein between capture and competition assay at 100 uM after 1 hr in presence of inactive Tcp-CC 14 by differential competition capture compound mass spectrometry; format: ADME
Aldo-keto reductase family 1 member B10, sequence (O60218 whole entry): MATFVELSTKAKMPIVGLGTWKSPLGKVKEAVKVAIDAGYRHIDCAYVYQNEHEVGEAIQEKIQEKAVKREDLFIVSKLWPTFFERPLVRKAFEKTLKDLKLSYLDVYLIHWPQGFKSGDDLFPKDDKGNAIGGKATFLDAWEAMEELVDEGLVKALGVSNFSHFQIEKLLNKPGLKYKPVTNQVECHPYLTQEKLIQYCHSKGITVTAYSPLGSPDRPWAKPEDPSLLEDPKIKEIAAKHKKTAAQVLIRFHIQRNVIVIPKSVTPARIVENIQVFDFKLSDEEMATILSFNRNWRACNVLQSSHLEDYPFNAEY

Pyridoxal kinase = biological target: T5, Pyridoxal kinase (Homo sapiens, UniProt O00764); experiment: Binding affinity to PDXK in human HepG2 assessed as intensity fold change of cumulated normalized intensity of protein between capture and competition assay at 100 uM after 1 hr in presence of inactive Tcp-CC 14 by differential competition capture compound mass spectrometry; format: ADME
T5 sequence (O00764 whole entry): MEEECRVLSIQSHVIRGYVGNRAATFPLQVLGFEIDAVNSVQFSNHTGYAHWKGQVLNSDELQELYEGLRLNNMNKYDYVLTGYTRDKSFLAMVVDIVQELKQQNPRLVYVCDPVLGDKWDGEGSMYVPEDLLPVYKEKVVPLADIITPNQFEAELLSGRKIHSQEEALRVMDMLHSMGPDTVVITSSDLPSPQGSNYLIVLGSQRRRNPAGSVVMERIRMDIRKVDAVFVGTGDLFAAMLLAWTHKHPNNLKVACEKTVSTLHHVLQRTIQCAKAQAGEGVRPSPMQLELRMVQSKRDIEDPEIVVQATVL

[9] = biological target: T6, Catechol O-methyltransferase (Homo sapiens, UniProt P21964); experiment: (§1) Inhibition of human recombinant His-tagged soluble COMT expressed in Escherichia coli BL21 using aesculetin as substrate after 60 mins by microplate assay in presence of SAM
T6 sequence (P21964 whole entry): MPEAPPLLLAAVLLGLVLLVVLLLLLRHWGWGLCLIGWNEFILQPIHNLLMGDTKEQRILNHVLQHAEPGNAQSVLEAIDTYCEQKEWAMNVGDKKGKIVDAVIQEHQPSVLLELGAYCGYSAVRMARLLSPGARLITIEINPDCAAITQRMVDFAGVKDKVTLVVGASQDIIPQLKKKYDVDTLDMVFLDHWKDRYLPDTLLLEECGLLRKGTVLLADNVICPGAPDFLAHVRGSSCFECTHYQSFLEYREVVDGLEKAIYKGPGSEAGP

[10] = biological target: T7, Catechol O-methyltransferase (Homo sapiens) (UniProt P21964); experiment: as §1
T7 sequence (whole entry): T6 sequence (P21964 whole entry)

| SMILES | fold change (FC) [3] | IC50 [9] | inhibition [10] | fold change (FC) [1] | Activity [2] | fold change (FC) (Acireductone dioxygenase) | Activity (HepG2 [4]) | Activity (HepG2 [5]) | fold change (FC) [6] | fold change (FC) [7] | fold change (FC) [8] | fold change (FC) (Pyridoxal kinase) |
| --- | --- | --- | --- | --- | --- | --- | --- | --- | --- | --- | --- | --- |
| Cc1ccc(C(=O)c2cc(O)c(O)c([N+](=O)[O-])c2)cc1 [TOLCAPONE] |  |  |  | 4.12 | Active | 7.59 | 0% | < 20% | 5.82 | 14.2 | 2.3 | 2.4 |
| CN(Cc1ccc(C(=O)c2cc(O)c(O)c([N+](=O)[O-])c2)cc1)C(=O)CCCCCNC(=O)C[C@H](NC(=O)c1ccc(N=[N+]=[N-])cc1)C(=O)NCCCOCCOCCOCCCNC(=O)CCCC[C@@H]1SC[C@@H]2NC(=O)N[C@@H]21 |  | 648 nM |  |  |  |  |  |  |  |  |  |  |
| Cc1ccc(C(=O)c2cc(OCCCCNC(=O)C[C@H](NC(=O)c3ccc(N=[N+]=[N-])cc3)C(=O)NCCCOCCOCCOCCCNC(=O)CCCC[C@@H]3SC[C@@H]4NC(=O)N[C@@H]43)c(O)c([N+](=O)[O-])c2)cc1 |  |  | inactive |  |  |  |  |  |  |  |  |  |
| CCN(CC)C(=O)/C(C#N)=C/c1cc(O)c(O)c([N+](=O)[O-])c1 [ENTACAPONE] | 2.11 |  |  | 8.63 |  | 2.38 | 40% | > 50% | 6.09 | 1.04 | 2.98 | 3.46 |

Further lines, with some results ahead:

| fold change (FC) [3] | IC50 [9] | inhibition [10] | SMILES | fold change (FC) [1] | Activity [2] | fold change (FC) (Acireductone dioxygenase) | Activity (HepG2 [4]) | Activity (HepG2 [5]) | fold change (FC) [6] | fold change (FC) [7] | fold change (FC) [8] | fold change (FC) (Pyridoxal kinase) |
| --- | --- | --- | --- | --- | --- | --- | --- | --- | --- | --- | --- | --- |
| 7.5 |  |  | CCN(CC)C(=O)c1cc2cc(O)c(O)c([N+](=O)[O-])c2cc1C(=O)N(CC)CC | 3.05 | inactive | 3.67 | 0% | < 20% | 5.9 | 5.35 | 4.7 | 16 |
| 3 | 179 nM |  | CCN1C(=O)S/C(=C/c2cc(O)c(O)c([N+](=O)[O-])c2)C1=O | 3.4 |  | 4.29 |  | > 50% | 6.34 | 1 | 3.1 | 24.9 |
